Drawing on PMC13104650 (Acta Pharmaceutica Sinica. B, 2025), this text covers Kd for 1 molecule.

For this test, the target named is T1, TXNRD1 (cytosolic thioredoxin reductase 1) (Rattus norvegicus, UniProt O89049).
T1 sequence (O89049 1-499): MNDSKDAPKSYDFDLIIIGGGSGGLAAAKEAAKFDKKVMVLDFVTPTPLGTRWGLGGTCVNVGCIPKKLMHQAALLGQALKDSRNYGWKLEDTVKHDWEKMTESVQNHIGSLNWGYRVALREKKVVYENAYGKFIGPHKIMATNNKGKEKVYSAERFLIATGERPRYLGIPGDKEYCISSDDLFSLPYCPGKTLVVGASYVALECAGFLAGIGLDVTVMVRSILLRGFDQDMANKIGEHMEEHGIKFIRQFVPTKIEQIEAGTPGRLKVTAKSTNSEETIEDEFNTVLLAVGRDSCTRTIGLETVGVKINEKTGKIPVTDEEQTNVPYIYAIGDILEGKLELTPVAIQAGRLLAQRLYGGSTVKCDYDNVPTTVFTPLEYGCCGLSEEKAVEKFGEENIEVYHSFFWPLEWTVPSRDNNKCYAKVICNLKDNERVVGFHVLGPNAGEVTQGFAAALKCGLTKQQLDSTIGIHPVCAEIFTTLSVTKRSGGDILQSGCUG
Kind of test: ITC. The class given is binding.

`C=C1C(=O)O[C@@H]2C[C@@]3(C)CCCC(=C)[C@@H]3C[C@H]12` [IAL, Isoalantolactone]: the dissociation constant Kd is 83.9 nM.

The term Kd denotes the concentration at which binding is half-saturated. The low end stands for higher affinity, the high end for lower affinity.
